BindingDB's records for doi:10.1016/j.bmcl.2005.07.060 (Universidad De Buenos Aires, 2005)

Molecular target: farnesyl pyrophosphate synthase (Trypanosoma cruzi)
Assay: Inhibitory concentration against Trypanosoma cruzi farnesyl pyrophosphate synthase (TcFPPS)

Structure (SMILES) | IC50 [µM]
CC(N)(P(=O)(O)O)P(=O)(O)O [(1-Amino-1-phosphono-ethyl)-phosphonic acid] | 66.7
CCCCCCC(N)(P(=O)(O)O)P(=O)(O)O [(1-Amino-1-phosphono-heptyl)-phosphonic acid] | 3.57
CCCCC(N)(P(=O)(O)O)P(=O)(O)O [(1-Amino-1-phosphono-pentyl)-phosphonic acid] | 3.91
CCCC(N)(P(=O)(O)O)P(=O)(O)O [(1-Amino-1-phosphono-butyl)-phosphonic acid] | 30.8
CCCCCC(N)(P(=O)(O)O)P(=O)(O)O [(1-Amino-1-phosphono-hexyl)-phosphonic acid] | 0.382
CCC(N)(P(=O)(O)O)P(=O)(O)O [(1-Amino-1-phosphono-propyl)-phosphonic acid] | 150
